B1: nidogen-1: human nidogen-1 linker protein (R&D systems) (protein, UniProt P14543 29-1247, looked up)
Nidogen-1: LSRQELFPFGPGQGDLELEDGDDFVSPALELSGALRFYDRSDIDAVYVTTNGIIATSEPPAKESHPGLFPPTFGAVAPFLADLDTTDGLGKVYYREDLSPSITQRAAECVHRGFPEISFQPSSAVVVTWESVAPYQGPSRDPDQKGKRNTFQAVLASSDSSSYAIFLYPEDGLQFHTTFSKKENNQVPAVVAFSQGSVGFLWKSNGAYNIFANDRESVENLAKSSNSGQQGVWVFEIGSPATTNGVVPADVILGTEDGAEYDDEDEDYDLATTRLGLEDVGTTPFSYKALRRGGADTYSVPSVLSPRRAATERPLGPPTERTRSFQLAVETFHQQHPQVIDVDEVEETGVVFSYNTDSRQTCANNRHQCSVHAECRDYATGFCCSCVAGYTGNGRQCVAEGSPQRVNGKVKGRIFVGSSQVPIVFENTDLHSYVVMNHGRSYTAISTIPETVGYSLLPLAPVGGIIGWMFAVEQDGFKNGFSITGGEFTRQAEVTFVGHPGNLVIKQRFSGIDEHGHLTIDTELEGRVPQIPFGSSVHIEPYTELYHYSTSVITSSSTREYTVTEPERDGASPSRIYTYQWRQTITFQECVHDDSRPALPSTQQLSVDSVFVLYNQEEKILRYALSNSIGPVREGSPDALQNPCYIGTHGCDTNAACRPGPRTQFTCECSIGFRGDGRTCYDIDECSEQPSVCGSHTICNNHPGTFRCECVEGYQFSDEGTCVAVVDQRPINYCETGLHNCDIPQRAQCIYTGGSSYTCSCLPGFSGDGQACQDVDECQPSRCHPDAFCYNTPGSFTCQCKPGYQGDGFRCVPGEVEKTRCQHEREHILGAAGATDPQRPIPPGLFVPECDAHGHYAPTQCHGSTGYCWCVDRDGREVEGTRTRPGMTPPCLSTVAPPIHQGPAVPTAVIPLPPGTHLLFAQTGKIERLPLEGNTMRKTEAKAFLHVPAKVIIGLAFDCVDKMVYWTDITEPSIGRASLHGGEPTTIIRQDLGSPEGIAVDHLGRNIFWTDSNLDRIEVAKLDGTQRRVLFETDLVNPRGIVTDSVRGNLYWTDWNRDNPKIETSYMDGTNRRILVQDDLGLPNGLTFDAFSSQLCWVDAGTNRAECLNPSQPSRRKALEGLQYPFAVTSYGKNLYFTDWKMNSVVALDLAISKETDAFQPHKQTRLYGITTALSQCPQGHNYCSVNNGGCTHLCLATPGSRTCRCPDNTLGVDCIEQK
B2: Wnt3a: morphogen Wnt3a, 10 ng/ml (R&D systems) (protein, UniProt P56704 19-352, looked up)
Protein Wnt-3a: SYPIWWSLAVGPQYSSLGSQPILCASIPGLVPKQLRFCRNYVEIMPSVAEGIKIGIQECQHQFRGRRWNCTTVHDSLAIFGPVLDKATRESAFVHAIASAGVAFAVTRSCAEGTAAICGCSSRHQGSPGKGWKWGGCSEDIEFGGMVSREFADARENRPDARSAMNRHNNEAGRQAIASHMHLKCKCHGLSGSCEVKTCWWSQPDFRAIGDFLKDKYDSASEMVVEKHRESRGWVETLRPRYTYFKVPTERDLVYYEASPNFCEPNPETGSFGTRDRTCNVSSHGIDGCDLLCCGRGHNARAERRREKCRCVFHWCCYVSCQECTRVYDVHTCK

Tests used:
[1] = test system: hESC; conditions: cited from earlier work
[2] = test system: hES cells; experiment: ES cell aggregation under different conditions (EB formation by centrifugation, Example 1); format: cell-based, human; conditions: inducer at 0.1 mg/ml (each protein)
From the text: Our investigations have shown that two elements when added to the hESC suspensions are sufficient to allow re-aggregation in the absence of MEF or other feeder cells. These two elements are the extracellular matrix proteins laminin and nidogen (Table 1 and FIG. 1A).
By adding human laminin and nidogen complex into suspensions of pure hES cells, cells or products of non-human origin can be completely avoided in the re-aggregation of hESC and the subsequent generation of EB. Laminin binds to the surface of hES cells through the specific receptor integrin α6 β1. […] Nidogen cross-links large molecules of laminin attached to the hES cell receptors into complex three-dimensional structures. When a laminin-nidogen mix is added to a hES cell suspension, highly viable EBs can be generated from as little as 100 hES cells (FIG. 1B).
Using our method, undifferentiated hES cells are prepared as a single cell suspension, plated (at the desired number of cells) into low attachment round bottom 96 well plates and then re-aggregated to form EBs using centrifugation in the presence of the laminin-nidogen complex. hEBs formed in this way have excellent viability, are of uniform size and contain all three germ layers (ectoderm, mesoderm and endoderm)—that can in turn be induced to generate more differentiated tissue. The simplicity of this method of hEB generation reduces the variability inherent in culture systems that require cellular components (such as MEFs) or other complex media. The simplicity of the system also facilitates the testing of variables that affect differentiation of hEB into different tissue types and improves the quantitation of any effects seen. This system may also be used for generation of chimeric EBs when different cell types (e.g., hES cells transduced with fluorescent tag can be mixed with non-transduced hES cells and re-aggregated into one EB with subsequent tracking of progenies arising from the labeled cells.

[3] = test system: hESC lines H1 and H9; experiment: hESC re-aggregation and EB formation, MEF-free modified spin EB method (Example 2); format: cell-based, human
Description: To generate MEF-free EBs, a modification of the “spin EB” method was used (8, 9). Colonies of H1 and H9 hESC (WiCell Inc) (passage 36-50) were cut into uniformed sized pieces using StemProEZPassage tool, transferred onto 6-well plates coated for 1 hour with Matrigel (growth factor reduced, no phenol red; BD Bioscience), and cultured in MEF-conditioned hESC media supplemented with 4 ng/ml FGF2. Pre-culture on Matrigel increases aggregation capacity of hESC (data not shown). After 24 hours, colonies were digested with Tryple Select into a single cell suspension, incubated with SSEA4 antibody, and SSEA4 positive cells sorted with FACS as described above. Before the sorting step 2-3% of the cells in suspension were represented by MEFs and 97-98% by hESC. After sorting, purity of hESC in the preparation was >99.9% as was measured with SSEA4 staining by FACS. These purified hESC were centrifuged at 1400 RPM and the resulting pellet was resuspended in previously described differentiation media, transferred into low attachment round-bottom 96 well culture plates (Nunc, Rochester, N.Y.) and centrifuged at 1400 RPM for 7 min with or without inducers of aggregation. To test the effects on cell aggregation, a mixture of ECMs in the form of Matrigel (5, 25, 100, 200, μg/ml) a solubilized basement membrane preparation extracted from the Engelbreth-Holm-Swarm (EHS) mouse sarcoma; murine laminin-111 and nidogen-1 complex (5, 25, 100, 200 μg/ml) from EHS sarcoma; or purified human collagen IV (1, 5, 25, 50 μg/ml) (all from BD Bioscience); human laminin-511 (1,5, 25, 50 μg/ml) (Sigma-Aldrich) and human nidogen-1 (1,5, 25, 50 μg/ml) (R&D systems) were added to the cell suspension prior to centrifugation. For directed differentiated of the EBs, differentiation media was supplemented with human vascular endothelial growth factor (VEGF), FGF2, bone morphogenic protein 4 (BMP4), or Wnt3a (all at 10 ng/ml; R&D systems) or FCS (Omega Scientific Inc. Tarzana, Calif.), prior to the final centrifugation step dependent upon experimental design.
Lower concentrations were not sufficient to aggregate all cells in the well. Higher concentrations of Matrigel increased viscosity and blocked efficient pellet formation during centrifugation.
To further dissect the mechanisms of hESC aggregation, the key ECM proteins were tested individually at a range of concentrations with regards to their capacity to assemble dispersed hESC into EBs. […] Thus, the presence of both laminin (either 111 or 511) and nidogen-1 was required for hESC aggregation.

[4] = test system: LN-EBs from hESC; experiment: Germ layer differentiation of LN-EBs (immunohistochemistry for nestin, CD34, alpha-fetoprotein); format: cell-based, human
Description: FIG. 4: Generation of ectodermal, mesodermal and endodermal derivatives in the “LN-EB” system. “LN-EBs” were generated with the laminin-nidogen complex and in the presence of media designed for specific germ layer differentiation. A. For induction of ectodermal derivatives, serum-free media was supplemented with Wnt3a (10 ng/ml); B. Addition of BMP4, FGF2, VEGF (all 10 ng/ml) to serum-free medium induced formation of endodermal and mesodermal derivatives. C. Addition of 10% FCS, with no exogenous growth factors, induced synchronous generation of the all three germ layers. D. Standard EBs cultured in medium supplemented with 10% FCS. E. Control EBs cultured in serum-free media with no exogenous growth factors. F. No primary antibody control of immunostaining. Immunohistochemical detection of ectoderm, mesoderm and endoderm formation was assessed using antibodies for nestin (left column), CD34 (middle column) and alpha-fetoprotein (right column) respectively. Antigen expression is shown in brown color. Nuclei are stained with hematoxylin (blue). Magnification: 200×. […]
To generate MEF-free EBs, a modification of the “spin EB” method was used (8, 9). […] After sorting, purity of hESC in the preparation was >99.9% as was measured with SSEA4 staining by FACS. […]

[5] = added individually as single agents at a range of concentrations

| Molecule | Aggregation [2] | hESC aggregation [3, 5] | other results |
| --- | --- | --- | --- |
| C[C@@H](N)[C@H]1CC[C@H](C(=O)Nc2ccncc2)CC1 [Y-27632] |  |  | aggregation and EB formation of dissociated hESC ([1]; 10 μM): aggregate and form EBs; survival of hESC after dissociation to single cells [1]: promote the survival |
| Collagen IV: extracellular matrix protein collagen IV | − |  |  |
| Fibronectin | − |  |  |
| Laminin | + (+ means very little aggregation) |  |  |
| human collagen-IV: purified human collagen IV (BD Bioscience) [reference compound] |  | No aggregation |  |
| human laminin-511 complexed with human nidogen-1: ultrapure human laminin-511 complexed with human nidogen-1, ratio laminin to nidogen 9:1 |  |  | hESC aggregation ([3]; laminin-511 9-22.5 μg/ml with nidogen-1 1-2.5 μg/ml, ratio laminin to nidogen 9:1): robust aggregation |
| human laminin-511: human laminin-α5β1γ1 heterotrimer (Sigma-Aldrich) |  | minimal aggregation |  |
| murine laminin-111-nidogen-1 complex: murine laminin-111 and nidogen-1 complex from EHS sarcoma |  |  | hESC aggregation ([3]; 100-200 μg/ml, MEF-free single cell suspension, after centrifugation): robust aggregation |
| B1 |  | minimal aggregation |  |
| B2 |  |  | germ layer derivatives suppressed in LN-EBs ([4]; serum-free medium, growth factors 10 ng/ml): formation of meso-endodermal derivatives labeled with CD34 and alpha-fetoprotein respectively was almost completely abolished; germ layer derivatives formed in LN-EBs ([4]; supplement in medium (growth factors 10 ng/ml serum-free, or 10% FCS), day 15): neuro-ectodermal epithelial cells that expressed nestin and formed solid neural tube-like structures were efficiently induced |
